From the Kinase Knowledgebase extract (Sharma et al. 2016)

Legend:
MAPK14 (human) = MAPK14 (human) (UniProt Q16539); assay: Inhibition of LPS-Stimulated TNF-alpha Production in Human Whole Blood
MAPK14 = MAPK14 (UniProt Q16539); assay: Inhibition of MAPK14 Kinase Activity
Chain of MAPK14 (Q16539 whole entry, looked up): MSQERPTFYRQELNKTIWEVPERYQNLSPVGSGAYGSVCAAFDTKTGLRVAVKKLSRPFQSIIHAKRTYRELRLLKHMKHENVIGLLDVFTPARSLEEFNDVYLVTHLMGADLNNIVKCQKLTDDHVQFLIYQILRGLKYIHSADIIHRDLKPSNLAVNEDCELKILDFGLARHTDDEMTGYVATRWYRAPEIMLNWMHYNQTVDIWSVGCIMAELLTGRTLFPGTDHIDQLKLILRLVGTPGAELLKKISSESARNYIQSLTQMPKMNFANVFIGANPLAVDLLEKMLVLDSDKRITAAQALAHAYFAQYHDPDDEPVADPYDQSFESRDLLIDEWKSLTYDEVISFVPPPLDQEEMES

Chain of MAPK14 (human) (Q16539 whole entry, looked up): as above

Compound	IC50 (MAPK14 (human))	IC50 (MAPK14)
COc1cc2ncnc(Nc3cc(NC(=O)c4cccc(N5CCOCC5)c4)ccc3C)c2cc1OCCN(C(C)C)C(C)C	3.5 µM	52 nM
Cc1ccc(NC(=O)c2ccnc(N3CCOCC3)c2)cc1Nc1cc(NCCCN2CCCN(C)CC2)ncn1	> 50 µM	1220 nM
Cc1ccc(NC(=O)c2ccnc(N3CCOCC3)c2)cc1Nc1ccnc(OCC(C)(C)CN(C)C)n1	–	79 nM
Cc1ccc(NC(=O)c2ccnc(N3CCOCC3)c2)cc1Nc1ccnc(Cl)n1	–	19 nM
COc1cc2ncnc(Nc3cc(NC(=O)c4cccc(N5CCOCC5)c4)ccc3C)c2cc1OCCN1CCOCC1	7.8 µM	24 nM
Cc1ccc(NC(=O)c2ccnc(N3CCOCC3)c2)cc1Nc1ccnc(OCCCN(C)C)n1	–	37 nM
CSc1nccc(Nc2cc(NC(=O)c3cc(F)cc(N4CCOCC4)c3)ccc2C)n1	–	14 nM
COc1cc2ncnc(Nc3cc(NC(=O)c4ccccc4)ccc3C)c2cc1OC	–	78 nM
Cc1ccc(NC(=O)c2ccnc(N3CCOCC3)c2)cc1Nc1ccnc(OCC2CCCN(C)C2)n1 (stereo not given)	–	33 nM
Cc1ccc(NC(=O)c2ccnc(N3CCOCC3)c2)cc1Nc1ccnc(NCCCN2CCOCC2)n1	> 50 µM	98 nM
Cc1ccc(NC(=O)c2ccnc(N3CCOCC3)c2)cc1Nc1cc(Cl)ncn1	> 50 µM	–
COc1cc2ncnc(Nc3cc(NC(=O)c4cccc(N5CCOCC5)c4)ccc3C)c2cc1OCCN1CCCCC1	4.6 µM	56 nM
C=CCN(C)c1nccc(Nc2cc(NC(=O)c3ccnc(N4CCOCC4)c3)ccc2C)n1	> 50 µM	–
Cc1ccc(NC(=O)c2ccnc(N3CCOCC3)c2)cc1Nc1ccnc(NCCCN2CCCC2)n1	–	58 nM
Cc1ccc(NC(=O)c2ccnc(N3CCOCC3)c2)cc1Nc1ccnc(OC2CCN(C)CC2)n1	–	45 nM
CCCN1CCC(Oc2nccc(Nc3cc(NC(=O)c4ccnc(N5CCOCC5)c4)ccc3C)n2)CC1	–	55 nM
COc1cc2ncnc(Nc3cc(NC(=O)c4cccc(N5CCOCC5)c4)ccc3C)c2cc1OCCN1CCCC1	–	39 nM
Cc1ccc(NC(=O)c2ccnc(N3CCOCC3)c2)cc1Nc1cc(NCCCN2CCCC2)ncn1	> 50 µM	–
CCCN1CCC(Oc2nccc(Nc3cc(NC(=O)c4cccc(N5CCOCC5)c4)ccc3C)n2)CC1	–	49 nM

Now from value to compound, other results behind:

IC50 (MAPK14 (human))	Compound	IC50 (MAPK14)
> 50 µM	COc1cc2ncnc(Nc3cc(NC(=O)c4ccccc4)ccc3Cl)c2cc1OC	88 nM
6.9 µM	COc1cc2ncnc(Nc3cc(NC(=O)c4cccc(N5CCOCC5)c4)ccc3C)c2cc1OCCN(C)C	35 nM
> 50 µM	COc1cc2ncnc(Nc3cc(NC(=O)c4ccccc4)c(F)cc3F)c2cc1OC	54 nM
> 50 µM	COc1cc2ncnc(Nc3cccc(NC(=O)c4ccccc4)c3)c2cc1OC	–
> 50 µM	COc1cc2ncnc(Nc3cccc(NC(=O)c4cccc(N(C)C)c4)c3)c2cc1OC	–
> 50 µM	COc1cc2ncnc(Nc3ccc(Cl)c(NC(=O)c4ccccc4)c3)c2cc1OC	–
> 50 µM	COc1cc2ncnc(Nc3cccc(NC(=O)c4ccccc4)c3F)c2cc1OC	–
> 50 µM	COc1cc2ncnc(Nc3cccc(Cl)c3)c2cc1OC	–
> 50 µM	COc1cc2ncnc(Nc3cc(NC(=O)c4cccc(N(C)C)c4)ccc3Cl)c2cc1OC	47 nM
> 50 µM	COc1cc2ncnc(Nc3ccc(Cl)c(NC(=O)c4cccc(N(C)C)c4)c3)c2cc1OC	–
> 50 µM	COc1cc2ncnc(Nc3cc(NC(=O)c4ccccc4)c(Cl)cc3F)c2cc1OC	–
> 50 µM	COc1cc2ncnc(Nc3ccc(C)c(NC(=O)c4ccccc4)c3)c2cc1OC	–
